Data reported in ChEMBL document CHEMBL1128106, “Oligonucleotide duplex stability controlled by the 7-substituents of 7-deazaguanine bases” (Bioorg Med Chem Lett, 1995).

Columns and labels:
[1] = Half life (t) of enzymatic phosphodiester hydrolysis of compound towards calf spleen (CS-PDE) at a concentration of 20 microg; type: ADME, Bos taurus; settings: cattle, calf spleen phosphodiesterase (CS-PDE)
[2] = Half life (t) of enzymatic phosphodiester hydrolysis of compound towards snake venom (SV-PDE) at a concentration of 4 microg; type: ADME; settings: serpentes, snake venom phosphodiesterase (SV-PDE)

Row | Compound | half-life [1] | half-life [2]
1 | COP(=O)(OC[C@H]1O[C@@H](n2ccc(N)nc2=O)C[C@@H]1OP(=O)(O)OC[C@H]1O[C@@H](n2cc(C)c3c(=O)[nH]c(N)nc32)C[C@@H]1OP(=O)(O)OC[C@H]1O[C@@H](n2ccc(N)nc2=O)C[C@@H]1O)O[C@H]1C[C@H](n2cc(C)c3c(=O)[nH]c(N)nc32)O[C@@H]1COP(=O)(O)O[C@H]1C[C@H](n2ccc(N)nc2=O)O[C@@H]1COP(=O)(O)O[C@H]1C[C@H](n2cc(C)c3c(=O)[nH]c(N)nc32)O[C@@H]1COP(=O)(O)O[C@H]1C[C@H](n2ccc(N)nc2=O)O[C@@H]1COP(=O)(O)O[C@H]1C[C@H](n2cc(C)c3c(=O)[nH]c(N)nc32)O[C@@H]1COP(=O)(O)O (some centres not stated) | > 1200 min | 16 min
2 | Nc1nc2c(ncn2[C@H]2C[C@H](O)[C@@H](COP(=O)(O)O[C@H]3C[C@H](n4cc(I)c5c(=O)[nH]c(N)nc54)O[C@@H]3COP(=O)(O)O[C@H]3C[C@H](n4cc(I)c5c(=O)[nH]c(N)nc54)O[C@@H]3COP(=O)(O)O[C@H]3C[C@H](n4cc(I)c5c(=O)[nH]c(N)nc54)O[C@@H]3COP(=O)(O)O[C@H]3C[C@H](n4cc(I)c5c(=O)[nH]c(N)nc54)O[C@@H]3COP(=O)(O)O[C@H]3C[C@H](n4cc(I)c5c(=O)[nH]c(N)nc54)O[C@@H]3COP(=O)(O)O)O2)c(=O)[nH]1 | > 1200 min | 26 min
3 | COP(=O)(OC[C@H]1O[C@@H](n2ccc(N)nc2=O)C[C@@H]1OP(=O)(O)OC[C@H]1O[C@@H](n2ccc3c(=O)[nH]c(N)nc32)C[C@@H]1OP(=O)(O)OC[C@H]1O[C@@H](n2ccc(N)nc2=O)C[C@@H]1O)O[C@H]1C[C@H](n2ccc3c(=O)[nH]c(N)nc32)O[C@@H]1COP(=O)(O)O[C@H]1C[C@H](n2ccc(N)nc2=O)O[C@@H]1COP(=O)(O)O[C@H]1C[C@H](n2ccc3c(=O)[nH]c(N)nc32)O[C@@H]1COP(=O)(O)O[C@H]1C[C@H](n2ccc(N)nc2=O)O[C@@H]1COP(=O)(O)O[C@H]1C[C@H](n2ccc3c(=O)[nH]c(N)nc32)O[C@@H]1COP(=O)(O)O (some centres not stated) | ~1000 min | 1.3 min
4 | Nc1nc2c(ccn2[C@H]2C[C@H](OP(=O)(O)OC[C@H]3O[C@@H](n4ccc5c(=O)[nH]c(N)nc54)C[C@@H]3OP(=O)(O)OC[C@H]3O[C@@H](n4ccc5c(=O)[nH]c(N)nc54)C[C@@H]3OP(=O)(O)OC[C@H]3O[C@@H](n4ccc5c(=O)[nH]c(N)nc54)C[C@@H]3OP(=O)(O)OC[C@H]3O[C@@H](n4ccc5c(=O)[nH]c(N)nc54)C[C@@H]3OP(=O)(O)OC[C@H]3O[C@@H](n4cnc5c(=O)[nH]c(N)nc54)C[C@@H]3O)[C@@H](COP(=O)(O)O)O2)c(=O)[nH]1 | > 1200 min | 2.5 min
5 | COP(=O)(OC[C@H]1O[C@@H](n2ccc(N)nc2=O)C[C@@H]1OP(=O)(O)OC[C@H]1O[C@@H](n2cc(I)c3c(=O)[nH]c(N)nc32)C[C@@H]1OP(=O)(O)OC[C@H]1O[C@@H](n2ccc(N)nc2=O)C[C@@H]1O)O[C@H]1C[C@H](n2cc(I)c3c(=O)[nH]c(N)nc32)O[C@@H]1COP(=O)(O)O[C@H]1C[C@H](n2ccc(N)nc2=O)O[C@@H]1COP(=O)(O)O[C@H]1C[C@H](n2cc(I)c3c(=O)[nH]c(N)nc32)O[C@@H]1COP(=O)(O)O[C@H]1C[C@H](n2ccc(N)nc2=O)O[C@@H]1COP(=O)(O)O[C@H]1C[C@H](n2cc(I)c3c(=O)[nH]c(N)nc32)O[C@@H]1COP(=O)(O)O (some centres not stated) | > 1200 min | 17 min
6 | Nc1ccn([C@H]2C[C@H](OP(=O)(O)OC[C@H]3O[C@@H](n4cnc5c(=O)[nH]c(N)nc54)C[C@@H]3OP(=O)(O)OC[C@H]3O[C@@H](n4ccc(N)nc4=O)C[C@@H]3OP(=O)(O)OC[C@H]3O[C@@H](n4cnc5c(=O)[nH]c(N)nc54)C[C@@H]3OP(=O)(O)OC[C@H]3O[C@@H](n4ccc(N)nc4=O)C[C@@H]3OP(=O)(O)OC[C@H]3O[C@@H](n4cnc5c(=O)[nH]c(N)nc54)CC3OP(=O)(O)OC[C@H]3O[C@@H](n4ccc(N)nc4=O)C[C@@H]3O)[C@@H](COP(=O)(O)O[C@H]3C[C@H](n4cnc5c(=O)[nH]c(N)nc54)O[C@@H]3COP(=O)(O)O)O2)c(=O)n1 (some centres not stated) | 82 min | 2.5 min
